From patent US9458141B2, “Low molecular weight thyroid stimulating hormone receptor (TSHR) agonists” (The United States of America, as represented by the …, priority 2008, dated 2016) come the findings set out here.

The test has as its target T1, human TSHR (Homo sapiens, UniProt P16473).
T1 construct: expressed in transfected cells
Briefly: Confirmatory cAMP assay, HEK EM 293 cells stably expressing TSHR. The format is cell-based. The note with it: 1 h incubation, 1 mM IBMX. The source says: cDNA for human TSHR was amplified by PCR from hTSHR-pSVL (1) and inserted into the pcDNA3.1(−)/hygromycin vector using restriction sites XhoI and BamHI. cDNA for human LHCGR was amplified by PCR from hLHR-pGS5 (2) and was inserted into the pcDNA3.1(+)/hygromycin vector using restriction sites BamHI and XhoI. The FSHR cDNA in pcDNA3.1 was obtained from the Missouri S&T cDNA Resource Center (www.cDNA.org) and was subcloned into the pcDNA3.1(−)/hygromycin vector. Constructs were confirmed by sequencing (MWG Biotech). HEK-EM 293 cells were transfected with the cDNA of TSHR, LHCGR or FSHR using FuGENE 6 Transfection reagent (Roche Diagnostics) according to the manufacturer's protocol. Two days after transfection cells were passaged and grown in Dulbecco's modified Eagle's Medium (DMEM) supplemented with 10% fetal bovine serum, 100 units/ml penicillin and 10 μg/ml streptomycin (Life Technologies Inc.) and with hygromycin (250 μg/ml) as a selection marker. After 7 to 10 days hygromycin-resistant clones were selected, and after a few days of further growth submitted for a cAMP assay to identify clones that stably express the appropriate receptor. Cell Culture. Cells stably expressing TSHR, LHCGR or FSHR and parental HEK 293 cells were maintained in DMEM medium containing 10% FBS, 100 units/ml Penicillin, 100 μg/ml Streptomycin, at 37° C. in 5% CO2. For the cells lines stably expressing TSHR, LHCGR or FSHR, additional 250 μg/ml Hygromycin was added during the cell culture. The cells were seeded at a density of 3 to 4 million cells in a T175 flask containing 35 ml of media and were allowed to grow for 3 days to reach 80-90% confluence. A flask of HEK 293 cells at this density generally yielded 30 million cells total. Homogeneous Time Resolved Fluorescence (HTRF) cAMP Assay. Compounds were assayed using a HTRF cAMP detection kit (Cisbio, Bedford, Mass.) on both TSHR cell line and parental cell line. Briefly, 750 cells were plated in 2.5 μl/well of complete media (DMEM containing 10% FCS) in 1536 well solid bottom white plates and 20 nl/well compound in DMSO solution or controls was added. Following 30 minute incubation at room temperature, 2.5 μl/well of labeled d2 cAMP and 2.5 μl/well of anti-cAMP antibody (both diluted 1:20 in lysis buffer) were added to each well using a flying reagent dispenser (Aurora Discovery, San Diego). Plates were measured using the Envision plate reader (PerkinElmer, Boston, Mass.) with excitation at 330 nm and emissions of 615 nm and 660 nm. Compound Preparation. […] Data Analysis. […] The EC50 values of compounds were calculated from the concentration-response curves by nonlinear regression analysis using Prism software (GraphPad Software, San Diego, Calif.). Confirmatory cAMP Assay and Test for Selectivity Towards TSHR 50,000 cells/well were plated in complete media (DMEM containing 10% FCS) in 96 well plates. […] Following aspiration of the medium after incubation with compounds, cells were lysed using lysis buffer of the cAMP-Screen Direct™ System (Applied Biosystems, Cat # CSD200). The cAMP content of the cell lysate was determined using the manufacturer's protocol. […] Below is a List of Compounds that were Assayed via the Homogeneous Time Resolved Fluorescence (HTRF) cAMP Assay.

T1 sequence (P16473 21-764): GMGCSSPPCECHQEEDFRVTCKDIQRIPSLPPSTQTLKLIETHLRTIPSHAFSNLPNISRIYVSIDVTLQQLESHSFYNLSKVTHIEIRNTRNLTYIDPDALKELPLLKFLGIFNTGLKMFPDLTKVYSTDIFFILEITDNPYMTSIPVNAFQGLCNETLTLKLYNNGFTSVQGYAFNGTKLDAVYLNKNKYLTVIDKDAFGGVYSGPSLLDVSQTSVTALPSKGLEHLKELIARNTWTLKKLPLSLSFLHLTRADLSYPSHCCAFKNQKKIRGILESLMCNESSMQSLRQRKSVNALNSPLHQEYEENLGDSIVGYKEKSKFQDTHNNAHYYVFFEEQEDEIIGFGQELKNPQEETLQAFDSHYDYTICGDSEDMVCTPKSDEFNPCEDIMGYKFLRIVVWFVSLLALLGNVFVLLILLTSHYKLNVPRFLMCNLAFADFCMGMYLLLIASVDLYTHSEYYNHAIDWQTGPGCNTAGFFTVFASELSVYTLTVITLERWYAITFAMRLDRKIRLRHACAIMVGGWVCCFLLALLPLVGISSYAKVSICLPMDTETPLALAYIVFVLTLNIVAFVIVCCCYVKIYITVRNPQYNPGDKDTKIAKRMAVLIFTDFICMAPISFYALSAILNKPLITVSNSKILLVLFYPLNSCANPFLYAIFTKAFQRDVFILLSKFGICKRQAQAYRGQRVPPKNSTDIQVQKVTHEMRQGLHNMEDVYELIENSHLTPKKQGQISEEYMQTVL

With `COc1ccc(C2Nc3ccccc3C(=O)N2Cc2ccco2)cc1COc1ccc(NC(C)=O)cc1` (centres unmarked) [Compound 3, N-(4-(5-(3-(Furan-2-ylmethyl)-4-oxo-1,2,3,4-tetrahydroquinazolin-2-yl)-2-methoxybenzyloxy)phenyl)acetamide], a half-maximal response (EC50) required 590 nM.
`COc1ccc(-c2nc3ccccc3c(=O)n2Cc2ccco2)cc1COc1ccc(NC(C)=O)cc1` [Compound 3/1, N-(4-(5-(3-(Furan-2-ylmethyl)-4-oxo-3,4-dihydroquinazolin-2-yl)-2-methoxybenzyloxy)phenyl)acetamide] displayed an EC50 of 100 nM. This EC50 is about 5.9-fold lower than that of the compound before.
The value for `COc1ccc(C2Nc3ccccc3C(=O)N2Cc2ccccc2)cc1COc1ccc(NC(C)=O)cc1` (centres unmarked) [Compound 3/2, N-(4-(5-(3-Benzyl-4-oxo-1,2,3,4-tetrahydroquinazolin-2-yl)-2-methoxybenzyloxy)phenyl)acetamide] was 541 nM; that for `COc1ccc(C2Nc3cccc(O)c3C(=O)N2Cc2ccccc2)cc1COc1ccc(NC(C)=O)cc1` (centres unmarked) [Compound 3/4, N-(4-(5-(3-Benzyl-5-hydroxy-4-oxo-1,2,3,4-tetrahydroquinazolin-2-yl)-2-methoxybenzyloxy)phenyl)acetamide] was 25 nM; that for `COc1ccc(C2Nc3ccccc3C(=O)N2Cc2ccccc2)cc1CSc1ccc(NC(C)=O)cc1` (centres unmarked) [Compound 3/5, N-(4-(5-(3-Benzyl-4-oxo-1,2,3,4-tetrahydroquinazolin-2-yl)-2-methoxybenzylthio)phenyl)acetamide] was 38 nM.
